22 compounds from US11111251B2, “Positive allosteric modulators of the muscarinic acetylcholine receptor M1” (Vanderbilt University, priority 2016, dated 2021) can be followed below.

Like-named read-outs stand apart in the source and are kept apart here. Where only a bound is given, the exact number is not on record here.

This assay has as its target T1, human mAChR M1 (Homo sapiens, UniProt P11229).
T1 sequence (P11229 1-460): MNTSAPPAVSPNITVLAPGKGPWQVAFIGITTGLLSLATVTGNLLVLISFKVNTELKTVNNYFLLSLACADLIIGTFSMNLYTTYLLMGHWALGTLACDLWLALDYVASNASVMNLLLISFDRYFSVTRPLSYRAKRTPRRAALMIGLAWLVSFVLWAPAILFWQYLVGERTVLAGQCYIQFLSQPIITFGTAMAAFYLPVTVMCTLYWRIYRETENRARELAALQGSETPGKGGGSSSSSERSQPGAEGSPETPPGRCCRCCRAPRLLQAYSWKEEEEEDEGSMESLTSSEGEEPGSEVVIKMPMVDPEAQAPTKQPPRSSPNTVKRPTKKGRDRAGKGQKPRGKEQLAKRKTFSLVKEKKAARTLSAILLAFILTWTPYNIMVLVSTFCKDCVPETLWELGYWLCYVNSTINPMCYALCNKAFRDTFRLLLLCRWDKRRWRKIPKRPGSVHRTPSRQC
Nature of the assay: mAChR M1 cell-based functional assay: calcium mobilization, positive allosteric modulator mode (increase in EC20 acetylcholine response). The note with it: for Emax: read-out: Human M1 Emax (%). The procedure, abridged:
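Calcium-flux assay in CHO-K1 cells stably expressing human M1, loaded with Fluo-4 AM (50 min, 37 °C) and read at 1 Hz. Compound (11-point, 1:3 series) was added at 4 s, EC20 acetylcholine at 144 s and EC80 at 230 s. PAM activity is the concentration-dependent rise in the EC20 response, fitted with a four-parameter logistic.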

Where [1] appears, read: Table 2, human M1, read-out: Human M1 EC50.

Consider `CC1CC(NC(=O)c2cc(Cc3ccc(-c4ccn(C)n4)nc3)c3c(ccn3C)n2)CC(C)O1` (stereo not shown) [Compound 506, N-(2,6-dimethyltetrahydropyran-4-yl)-1-methyl-7-[[6-(1-methylpyrazol-3-yl)-3-pyridyl]methyl]pyrrolo[3,2-b]pyridine-5-carboxamide;], for which the half-maximal effective concentration (EC50) under setting [1] was found to be 7.12 µM. Further, under “Table 2, human M1”, the maximal response (Emax) turned out to be 78.2%.

As for `COCCCNC(=O)c1cc(Cc2ccc(-c3nccs3)cc2)c2sccc2n1` [Compound 372, N-(3-methoxypropyl)-7-[(4-thiazol-2-ylphenyl)methyl]thieno[3,2-b]pyridine-5-carboxamide], under setting [1], the half-maximal effective concentration (EC50) came out at 1.88 µM. Moreover, the maximum response (Emax) (Table 2, human M1) amounted to 75.3%.

As to `Cc1ccc(C(=O)c2cc(C(=O)N[C@@H]3CCCC[C@H]3O)nc3ccsc23)cn1` [Compound 145, N-[(1R,2R)-2-hydroxycyclohexyl]-7-(6-methylpyridine-3-carbonyl)thieno[3,2-b]pyridine-5-carboxamide], the EC50 under setting [1] was greater than 10 µM. The maximal effect (Emax) (Table 2, human M1) was 41.6%.

As for `Cn1ccc(-c2ccc(Cc3cc(C(=O)NCC4CCOCC4)nc4ccsc34)cn2)n1` [Compound 358, 7-[[6-(1-methylpyrazol-3-yl)-3-pyridyl]methyl]-N-(tetrahydropyran-4-ylmethyl)thieno[3,2-b]pyridine-5-carboxamide], under setting [1], the EC50 stood at 0.201 µM. For the setting “Table 2, human M1”, the Emax turned out to be 84.3%.

As to `Cc1csc2c(Cc3ccc(-c4ccn(C)n4)cc3)cc(C(=O)NC3CC4(COC4)C3)nc12` [Compound 304, 3-methyl-7-[[4-(1-methylpyrazol-3-yl)phenyl]methyl]-N-(2-oxaspiro[3.3]heptan-6-yl)thieno[3,2-b]pyridine-5-carboxamide], the concentration giving a half-maximal response (EC50) under setting [1] came to 0.568 µM. In addition, the maximal effect (Emax) (Table 2, human M1) was 72.3%.

As for `O=C(NC1CCCOC1)c1cc(Cc2ccc(-c3nccs3)cc2)c2sccc2n1` (stereo not shown) [Compound 366, N-tetrahydropyran-3-yl-7-[(4-thiazol-2-ylphenyl)methyl]thieno[3,2-b]pyridine-5-carboxamide], the concentration giving a half-maximal response (EC50) under setting [1] amounted to 1.87 µM. The Emax (Table 2, human M1) came to 83.7%.

With `O=C(NC1CCCNC1=O)c1cc(Cc2ccc(C(F)(F)F)nc2)c2sccc2n1` (stereo not shown) [Compound 97, N-(2-oxo-3-piperidyl)-7-[[6-(trifluoromethyl)-3-pyridyl]methyl]thieno[3,2-b]pyridine-5-carboxamide], the EC50 under setting [1] is greater than 10 µM. For the same compound, for the setting “Table 2, human M1”, the Emax is 75.2%.

`O=C(NC1CC(F)(F)C1)c1cc(Cc2ccc(-n3cccn3)cc2)c2sccc2n1` [Compound 281, N-(3,3-difluorocyclobutyl)-7-[(4-pyrazol-1-ylphenyl)methyl]thieno[3,2-b]pyridine-5-carboxamide]: under setting [1], the EC50 was found to be 0.256 µM. Besides, under “Table 2, human M1”, the maximum response (Emax) came to 55%.

For the compound `Cc1csc2c(Cc3ccc(-c4ccn(C)n4)cc3)cc(C(=O)N[C@H]3CCOC[C@@H]3O)nc12` [Compound 313], under setting [1], the concentration for a half-maximal effect (EC50) came to 0.0227 µM. The Emax (Table 2, human M1) is 63.9%.

In the case of `O=C(N[C@@H]1CCC[C@H]1O)c1cc(Cc2ccc(-n3cccn3)cc2)c2sccc2n1` [Compound 71, N-[(1R,2R)-2-hydroxycyclopentyl]-7-[(4-pyrazol-1-ylphenyl)methyl]thieno[3,2-b]pyridine-5-carboxamide], the half-maximal effective concentration (EC50) under setting [1] worked out at 0.0803 µM. Further, the Emax (Table 2, human M1) is 92.7%.

For the compound `Cc1csc2c(Cc3ccc(-n4cccn4)cc3)cc(C(=O)NC3CCOCC3)nc12` [Compound 115, 3-methyl-7-[(4-pyrazol-1-ylphenyl)methyl]-N-tetrahydropyran-4-yl-thieno[3,2-b]pyridine-5-carboxamide], the EC50 under setting [1] came out at 1.05 µM. Further, the Emax (Table 2, human M1) was determined as 86.2%.

Regarding `Cn1cc(-c2ccc(Cc3cc(C(=O)N[C@H]4CCOC[C@@H]4O)nc4ccsc34)c(F)c2)cn1` [Compound 52, 7-[[2-fluoro-4-(1-methylpyrazol-4-yl)phenyl]methyl]-N-[(3R,4S)-3-hydroxytetrahydropyran-4-yl]thieno[3,2-b]pyridine-5-carboxamide], the EC50 under setting [1] was 1.96 µM. Also, the maximal effect (Emax) (Table 2, human M1) was 76%.

As for `Cn1cc2c(-c3ccc(Oc4cc(C(=O)N[C@H]5CCOC[C@@H]5O)nc5ccsc45)c(F)c3)cccc2n1` [Compound 13, 7-[2-fluoro-4-(2-methylindazol-4-yl)phenoxy]-N-[(3R,4S)-3-hydroxytetrahydropyran-4-yl]thieno[3,2-b]pyridine-5-carboxamide], the EC50 (Table 1, mAChR M1 cell-based functional assay, PAM mode, species not given, read-out: EC50) is 4.12 µM.

Consider `Cn1ccc(-c2ccc(Cc3cc(C(=O)NC4CC(F)C4)nc4ccn(C)c34)cn2)n1` (stereo not shown) [Compound 510, N-(3-fluorocyclobutyl)-1-methyl-7-[[6-(1-methylpyrazol-3-yl)-3-pyridyl]methyl]pyrrolo[3,2-b]pyridine-5-carboxamide;], for which the EC50 under setting [1] worked out at 4.28 µM. Moreover, the maximum response (Emax) (Table 2, human M1) amounted to 76.8%.

Take `Cc1csc2c(Cc3ccc(-c4ccn(C)n4)cc3)cc(C(=O)NC3COC3)nc12` [Compound 307, 3-methyl-7-[[4-(1-methylpyrazol-3-yl)phenyl]methyl]-N-(oxetan-3-yl)thieno[3,2-b]pyridine-5-carboxamide]: under setting [1], the concentration giving a half-maximal response (EC50) is 3.44 µM. Also, under “Table 2, human M1”, the maximal response (Emax) amounted to 67.2%.

Take `Cn1cc(-c2ccc(Cc3cc(C(=O)N[C@@H]4CCCCC[C@H]4O)nc4ccsc34)cc2)nn1` [Compound 157, N-[(1R,2R)-2-hydroxycycloheptyl]-7-[[4-(1-methyltriazol-4-yl)phenyl]methyl]thieno[3,2-b]pyridine-5-carboxamide]: under setting [1], the half-maximal effective concentration (EC50) was determined as 0.0242 µM. The maximum response (Emax) (Table 2, human M1) came out at 70%.

In the case of `Cc1nc(-c2ccc(Cc3cc(C(=O)N[C@H]4COCC[C@@H]4O)nc4ccsc34)cc2)cs1` [Compound 193, N-[(3S,4S)-4-hydroxytetrahydropyran-3-yl]-7-[[4-(2-methylthiazol-4-yl)phenyl]methyl]thieno[3,2-b]pyridine-5-carboxamide], the EC50 under setting [1] was 0.0311 µM. Also, the maximal effect (Emax) (Table 2, human M1) came to 85.7%.

As to `O=C(NCC1CCCCO1)c1cc(Cc2ccc(-c3nccs3)cc2)c2sccc2n1` (stereo not shown) [Compound 375, N-(tetrahydropyran-2-ylmethyl)-7-[(4-thiazol-2-ylphenyl)methyl]thieno[3,2-b]pyridine-5-carboxamide], the 50% effective concentration (EC50) under setting [1] was greater than 10 µM. The maximal effect (Emax) (Table 2, human M1) came out at 77.4%.

Turning to `COCC(C)NC(=O)c1cc(Cc2ccc(-c3ccn(C)n3)nc2)c2sccc2n1` (stereo not shown) [Compound 424, N-(2-methoxy-1-methyl-ethyl)-7-[[6-(1-methylpyrazol-3-yl)-3-pyridyl]methyl]thieno[3,2-b]pyridine-5-carboxamide], under setting [1], the concentration for a half-maximal effect (EC50) was 8.47 µM. Further, the Emax (Table 2, human M1) is 68.6%.

In the case of `Cn1cc(-c2ccc(Cc3cc(C(=O)N[C@@H]4CCOC4)nc4ccsc34)cn2)cn1` [Compound 344, 7-[[6-(1-methylpyrazol-4-yl)-3-pyridyl]methyl]-N-[(3R)-tetrahydrofuran-3-yl]thieno[3,2-b]pyridine-5-carboxamide], the EC50 under setting [1] worked out at 0.798 µM. In addition, for the setting “Table 2, human M1”, the Emax came out at 85.5%.

Consider `CC1(C)COCCC1NC(=O)c1cc(Cc2ccc(-c3cncs3)cc2)c2sccc2n1` (stereo not shown) [Compound 390, N-(3,3-dimethyltetrahydropyran-4-yl)-7-[(4-thiazol-5-ylphenyl)methyl]thieno[3,2-b]pyridine-5-carboxamide], for which the EC50 under setting [1] came out at 0.926 µM. Moreover, the Emax (Table 2, human M1) was 66.3%.

Turning to `Cn1ccc2nc(C(=O)NCC3CCOCC3)cc(Cc3ccc(-c4nccs4)cc3)c21` [Compound 486, 1-methyl-N-(tetrahydropyran-4-ylmethyl)-7-[(4-thiazol-2-ylphenyl)methyl]pyrrolo[3,2-b]pyridine-5-carboxamide], the EC50 under setting [1] was determined as 0.483 µM. In addition, the Emax (Table 2, human M1) is 37.5%.
